Data from ChEMBL document CHEMBL1926576, “Fragment based lead discovery of small molecule inhibitors for the EPHA4 receptor tyrosine kinase” (Eur J Med Chem, 2012).

How the values were obtained:
[1] = target: Tyrosine-protein kinase CSK (Homo sapiens) (UniProt P41240); experiment: Inhibition of CSK assessed as residual activity at 10 uM using [33P-ATP] by radiometric filter binding assay
[2] = target: Dual specificity tyrosine-phosphorylation-regulated kinase 3 (Homo sapiens) (UniProt O43781); experiment: Inhibition of DYRK3 assessed as residual activity at 10 uM using [33P-ATP] by radiometric filter binding assay
Sequence of Dual specificity tyrosine-phosphorylation-regulated kinase 3 (Homo sapiens) (O43781 whole entry): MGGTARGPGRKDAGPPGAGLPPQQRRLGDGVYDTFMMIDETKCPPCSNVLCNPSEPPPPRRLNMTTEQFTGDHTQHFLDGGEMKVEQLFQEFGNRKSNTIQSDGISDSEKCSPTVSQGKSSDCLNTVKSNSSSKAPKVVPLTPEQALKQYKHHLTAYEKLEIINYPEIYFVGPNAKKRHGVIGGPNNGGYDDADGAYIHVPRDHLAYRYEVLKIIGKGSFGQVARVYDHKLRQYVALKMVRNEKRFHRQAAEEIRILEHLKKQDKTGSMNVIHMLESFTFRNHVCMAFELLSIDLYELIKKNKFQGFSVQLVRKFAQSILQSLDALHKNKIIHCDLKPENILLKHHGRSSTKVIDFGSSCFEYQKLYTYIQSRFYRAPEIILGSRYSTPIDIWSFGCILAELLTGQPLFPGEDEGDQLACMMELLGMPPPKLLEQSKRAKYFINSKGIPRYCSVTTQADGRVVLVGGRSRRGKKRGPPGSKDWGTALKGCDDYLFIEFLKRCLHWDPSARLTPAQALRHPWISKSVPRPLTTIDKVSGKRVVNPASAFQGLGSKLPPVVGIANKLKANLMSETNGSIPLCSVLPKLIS

[3] = target: MAP kinase-activated protein kinase 5 (Homo sapiens) (UniProt Q8IW41); experiment: Inhibition of PRAK assessed as residual activity at 10 uM using [33P-ATP] by radiometric filter binding assay
[4] = target: Interleukin-1 receptor-associated kinase 1 (Homo sapiens) (UniProt P51617); experiment: Inhibition of IRAK1 assessed as residual activity at 10 uM using [33P-ATP] by radiometric filter binding assay
[5] = target: Serine/threonine-protein kinase STK11 (Homo sapiens) (UniProt Q15831); experiment: Inhibition of LKB1 assessed as residual activity at 10 uM using [33P-ATP] by radiometric filter binding assay
[6] = target: Ephrin type-A receptor 2 (Homo sapiens) (UniProt P29317); experiment: Inhibition of EPHA2 assessed as residual activity at 10 uM using [33P-ATP] by radiometric filter binding assay
[7] = target: Tyrosine-protein kinase Lck (Homo sapiens) (UniProt P06239); experiment: Inhibition of Lck assessed as residual activity at 10 uM using [33P-ATP] by radiometric filter binding assay
[8] = target: Tyrosine-protein kinase SYK (Homo sapiens) (UniProt P43405); experiment: Inhibition of SYK assessed as residual activity at 10 uM using [33P-ATP] by radiometric filter binding assay
[9] = target: Serine/threonine-protein kinase TAO1 (Homo sapiens) (UniProt Q7L7X3); experiment: Inhibition of TAO1 assessed as residual activity at 10 uM using [33P-ATP] by radiometric filter binding assay
[10] = target: Protein kinase C gamma type (Homo sapiens) (UniProt P05129); experiment: Inhibition of PKCgamma assessed as residual activity at 10 uM using [33P-ATP] by radiometric filter binding assay
[11] = target: Ribosomal protein S6 kinase alpha-1 (Homo sapiens) (UniProt Q15418); experiment: Inhibition of RSK1 assessed as residual activity at 10 uM using [33P-ATP] by radiometric filter binding assay
[12] = target: Inhibitor of nuclear factor kappa-B kinase subunit epsilon (Homo sapiens) (UniProt Q14164); experiment: Inhibition of IKKepsilon assessed as residual activity at 10 uM using [33P-ATP] by radiometric filter binding assay
Sequence of Inhibitor of nuclear factor kappa-B kinase subunit epsilon (Homo sapiens) (Q14164 whole entry): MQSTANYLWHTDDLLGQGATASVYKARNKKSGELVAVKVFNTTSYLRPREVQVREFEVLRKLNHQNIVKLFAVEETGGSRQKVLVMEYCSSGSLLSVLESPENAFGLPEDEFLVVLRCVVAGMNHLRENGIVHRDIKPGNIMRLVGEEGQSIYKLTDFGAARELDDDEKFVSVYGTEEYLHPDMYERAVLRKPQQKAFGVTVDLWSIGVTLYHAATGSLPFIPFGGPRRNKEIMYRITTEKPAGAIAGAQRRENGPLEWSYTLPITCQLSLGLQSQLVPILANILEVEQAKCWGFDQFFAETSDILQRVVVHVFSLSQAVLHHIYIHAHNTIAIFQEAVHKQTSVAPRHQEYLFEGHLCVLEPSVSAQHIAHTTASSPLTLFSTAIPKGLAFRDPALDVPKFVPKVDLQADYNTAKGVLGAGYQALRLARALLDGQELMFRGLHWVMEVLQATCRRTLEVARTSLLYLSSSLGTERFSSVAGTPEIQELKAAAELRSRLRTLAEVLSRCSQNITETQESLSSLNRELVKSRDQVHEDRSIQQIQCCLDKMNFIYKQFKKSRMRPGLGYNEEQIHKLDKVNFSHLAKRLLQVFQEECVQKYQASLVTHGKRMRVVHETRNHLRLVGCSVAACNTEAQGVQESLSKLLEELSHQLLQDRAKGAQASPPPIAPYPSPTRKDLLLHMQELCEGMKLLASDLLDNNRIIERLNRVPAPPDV

[13] = target: Protein-tyrosine kinase 6 (Homo sapiens) (UniProt Q13882); experiment: Inhibition of BRK assessed as residual activity at 10 uM using [33P-ATP] by radiometric filter binding assay
[14] = target: Protein kinase C alpha type (Homo sapiens) (UniProt P17252); experiment: Inhibition of PKCalpha assessed as residual activity at 10 uM using [33P-ATP] by radiometric filter binding assay
[15] = target: Serine/threonine-protein kinase PAK 4 (Homo sapiens) (UniProt O96013); experiment: Inhibition of PAK4 assessed as residual activity at 10 uM using [33P-ATP] by radiometric filter binding assay
[16] = target: Tyrosine-protein kinase ZAP-70 (Homo sapiens) (UniProt P43403); experiment: Inhibition of ZAP70 assessed as residual activity at 10 uM using [33P-ATP] by radiometric filter binding assay
Sequence of Tyrosine-protein kinase ZAP-70 (Homo sapiens) (P43403 whole entry): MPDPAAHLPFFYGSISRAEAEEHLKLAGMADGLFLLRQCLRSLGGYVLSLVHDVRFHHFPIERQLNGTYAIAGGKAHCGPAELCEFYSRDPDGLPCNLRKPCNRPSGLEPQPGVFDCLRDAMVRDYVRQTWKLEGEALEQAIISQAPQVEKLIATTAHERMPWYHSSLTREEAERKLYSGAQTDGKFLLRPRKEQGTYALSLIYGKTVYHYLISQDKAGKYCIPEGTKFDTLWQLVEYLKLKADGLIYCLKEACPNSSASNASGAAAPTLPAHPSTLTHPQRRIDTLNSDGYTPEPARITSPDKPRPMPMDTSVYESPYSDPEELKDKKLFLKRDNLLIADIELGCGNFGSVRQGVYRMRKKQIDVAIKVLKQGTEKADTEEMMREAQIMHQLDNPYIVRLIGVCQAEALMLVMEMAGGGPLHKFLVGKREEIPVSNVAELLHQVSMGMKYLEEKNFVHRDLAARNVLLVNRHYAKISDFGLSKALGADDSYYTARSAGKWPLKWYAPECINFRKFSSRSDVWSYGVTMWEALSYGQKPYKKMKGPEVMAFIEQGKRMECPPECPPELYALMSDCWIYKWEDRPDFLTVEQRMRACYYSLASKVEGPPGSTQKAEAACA

[17] = target: Mitogen-activated protein kinase kinase kinase 9 (Homo sapiens) (UniProt P80192); experiment: Inhibition of MLK1 assessed as residual activity at 10 uM using [33P-ATP] by radiometric filter binding assay
Sequence of Mitogen-activated protein kinase kinase kinase 9 (Homo sapiens) (P80192 whole entry, looked up): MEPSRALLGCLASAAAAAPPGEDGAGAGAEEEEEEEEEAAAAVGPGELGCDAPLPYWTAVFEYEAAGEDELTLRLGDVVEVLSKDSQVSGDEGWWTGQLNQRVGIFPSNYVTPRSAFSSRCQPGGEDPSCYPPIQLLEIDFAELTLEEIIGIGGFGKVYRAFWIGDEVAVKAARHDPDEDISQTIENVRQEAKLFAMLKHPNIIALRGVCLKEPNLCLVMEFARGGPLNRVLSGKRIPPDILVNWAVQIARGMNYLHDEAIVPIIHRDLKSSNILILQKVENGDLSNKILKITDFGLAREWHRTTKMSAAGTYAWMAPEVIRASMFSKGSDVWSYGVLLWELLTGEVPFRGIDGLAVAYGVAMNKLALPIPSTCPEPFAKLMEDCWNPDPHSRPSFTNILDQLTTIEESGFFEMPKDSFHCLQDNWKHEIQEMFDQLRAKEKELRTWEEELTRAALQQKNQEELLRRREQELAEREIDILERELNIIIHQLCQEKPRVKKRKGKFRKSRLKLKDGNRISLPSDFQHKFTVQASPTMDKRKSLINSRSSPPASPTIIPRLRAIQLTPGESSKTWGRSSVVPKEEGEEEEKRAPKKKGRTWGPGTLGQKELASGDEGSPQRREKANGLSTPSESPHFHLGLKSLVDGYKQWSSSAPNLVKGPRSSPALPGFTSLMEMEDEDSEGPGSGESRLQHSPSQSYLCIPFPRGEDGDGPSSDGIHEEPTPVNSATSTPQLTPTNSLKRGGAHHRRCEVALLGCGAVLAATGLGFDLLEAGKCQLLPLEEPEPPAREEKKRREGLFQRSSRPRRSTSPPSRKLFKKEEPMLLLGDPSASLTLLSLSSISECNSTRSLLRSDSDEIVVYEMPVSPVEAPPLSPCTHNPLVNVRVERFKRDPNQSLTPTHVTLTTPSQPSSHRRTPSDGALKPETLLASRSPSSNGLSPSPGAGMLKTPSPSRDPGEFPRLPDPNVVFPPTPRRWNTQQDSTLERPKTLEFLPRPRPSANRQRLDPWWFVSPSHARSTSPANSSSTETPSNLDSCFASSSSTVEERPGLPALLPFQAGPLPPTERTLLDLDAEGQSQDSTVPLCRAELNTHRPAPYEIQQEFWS

[18] = target: Serine/threonine-protein kinase Chk2 (Homo sapiens) (UniProt O96017); experiment: Inhibition of CHK2 assessed as residual activity at 10 uM using [33P-ATP] by radiometric filter binding assay
[19] = target: Ribosomal protein S6 kinase alpha-5 (Homo sapiens) (UniProt O75582); experiment: Inhibition of MSK1 assessed as residual activity at 10 uM using [33P-ATP] by radiometric filter binding assay
[20] = target: Ephrin type-B receptor 3 (Homo sapiens) (UniProt P54753); experiment: Inhibition of EPHB3 assessed as residual activity at 10 uM using [33P-ATP] by radiometric filter binding assay
[21] = target: Testis-specific serine/threonine-protein kinase 1 (Homo sapiens) (UniProt Q9BXA7); experiment: Inhibition of TSSK1 assessed as residual activity at 10 uM using [33P-ATP] by radiometric filter binding assay
[22] = target: Mitogen-activated protein kinase 3 (Homo sapiens) (UniProt P27361); experiment: Inhibition of ERK1 assessed as residual activity at 10 uM using [33P-ATP] by radiometric filter binding assay
[23] = target: Serine/threonine-protein kinase TBK1 (Homo sapiens) (UniProt Q9UHD2); experiment: Inhibition of TBK1 assessed as residual activity at 10 uM using [33P-ATP] by radiometric filter binding assay
[24] = target: Maternal embryonic leucine zipper kinase (Homo sapiens) (UniProt Q14680); experiment: Inhibition of MELK assessed as residual activity at 10 uM using [33P-ATP] by radiometric filter binding assay
Sequence of Maternal embryonic leucine zipper kinase (Homo sapiens) (Q14680 whole entry, looked up): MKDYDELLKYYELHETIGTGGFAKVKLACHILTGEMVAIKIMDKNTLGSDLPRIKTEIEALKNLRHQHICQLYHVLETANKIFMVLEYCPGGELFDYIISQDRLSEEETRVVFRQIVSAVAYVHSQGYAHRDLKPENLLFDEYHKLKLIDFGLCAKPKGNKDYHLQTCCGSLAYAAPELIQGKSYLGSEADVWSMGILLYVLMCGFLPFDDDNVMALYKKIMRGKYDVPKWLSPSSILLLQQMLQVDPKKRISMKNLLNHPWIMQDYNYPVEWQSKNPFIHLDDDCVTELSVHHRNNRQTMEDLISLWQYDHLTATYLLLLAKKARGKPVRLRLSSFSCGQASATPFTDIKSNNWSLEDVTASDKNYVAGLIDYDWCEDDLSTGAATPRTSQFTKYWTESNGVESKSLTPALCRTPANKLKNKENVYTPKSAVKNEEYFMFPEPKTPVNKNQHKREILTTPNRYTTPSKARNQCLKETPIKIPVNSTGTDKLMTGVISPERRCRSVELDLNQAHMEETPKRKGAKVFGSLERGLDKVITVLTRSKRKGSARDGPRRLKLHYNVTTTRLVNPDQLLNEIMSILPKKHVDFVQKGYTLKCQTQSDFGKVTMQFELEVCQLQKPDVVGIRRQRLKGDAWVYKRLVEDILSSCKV

[25] = target: Serine/threonine-protein kinase pim-3 (Homo sapiens) (UniProt Q86V86); experiment: Inhibition of PIM3 assessed as residual activity at 10 uM using [33P-ATP] by radiometric filter binding assay
[26] = target: Dual specificity tyrosine-phosphorylation-regulated kinase 1A (Homo sapiens) (UniProt Q13627); experiment: Inhibition of DYRK1A assessed as residual activity at 10 uM using [33P-ATP] by radiometric filter binding assay
[27] = target: RAC-alpha serine/threonine-protein kinase (Homo sapiens) (UniProt P31749); experiment: Inhibition of PKBalpha assessed as residual activity at 10 uM using [33P-ATP] by radiometric filter binding assay
[28] = target: Serine/threonine-protein kinase BRSK1 (Homo sapiens) (UniProt Q8TDC3); experiment: Inhibition of BRSK1 assessed as residual activity at 10 uM using [33P-ATP] by radiometric filter binding assay
Sequence of Serine/threonine-protein kinase BRSK1 (Homo sapiens) (Q8TDC3 whole entry): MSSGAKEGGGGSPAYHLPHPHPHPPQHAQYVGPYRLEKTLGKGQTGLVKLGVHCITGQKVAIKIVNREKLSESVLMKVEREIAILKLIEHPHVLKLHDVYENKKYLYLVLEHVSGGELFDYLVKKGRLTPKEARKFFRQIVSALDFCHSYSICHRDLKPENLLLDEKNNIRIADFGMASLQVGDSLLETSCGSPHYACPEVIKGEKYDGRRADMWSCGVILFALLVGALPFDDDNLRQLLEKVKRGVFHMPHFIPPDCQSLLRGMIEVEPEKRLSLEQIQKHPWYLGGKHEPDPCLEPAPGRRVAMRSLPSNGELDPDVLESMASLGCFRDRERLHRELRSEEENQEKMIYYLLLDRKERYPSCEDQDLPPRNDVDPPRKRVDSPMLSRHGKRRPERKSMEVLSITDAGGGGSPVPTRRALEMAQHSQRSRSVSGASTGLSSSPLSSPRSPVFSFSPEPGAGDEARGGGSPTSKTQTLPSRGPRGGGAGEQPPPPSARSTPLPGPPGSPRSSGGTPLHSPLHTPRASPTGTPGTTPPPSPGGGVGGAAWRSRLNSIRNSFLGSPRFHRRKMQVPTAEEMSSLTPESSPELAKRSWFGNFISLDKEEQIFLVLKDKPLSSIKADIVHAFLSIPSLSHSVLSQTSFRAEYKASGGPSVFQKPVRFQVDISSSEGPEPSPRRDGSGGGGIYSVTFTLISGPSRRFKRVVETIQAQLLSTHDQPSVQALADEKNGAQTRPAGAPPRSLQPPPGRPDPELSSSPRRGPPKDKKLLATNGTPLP

[29] = target: MAP kinase-interacting serine/threonine-protein kinase 2 (Homo sapiens) (UniProt Q9HBH9); experiment: Inhibition of MNK2 assessed as residual activity at 10 uM using [33P-ATP] by radiometric filter binding assay
Sequence of MAP kinase-interacting serine/threonine-protein kinase 2 (Homo sapiens) (Q9HBH9 whole entry, looked up): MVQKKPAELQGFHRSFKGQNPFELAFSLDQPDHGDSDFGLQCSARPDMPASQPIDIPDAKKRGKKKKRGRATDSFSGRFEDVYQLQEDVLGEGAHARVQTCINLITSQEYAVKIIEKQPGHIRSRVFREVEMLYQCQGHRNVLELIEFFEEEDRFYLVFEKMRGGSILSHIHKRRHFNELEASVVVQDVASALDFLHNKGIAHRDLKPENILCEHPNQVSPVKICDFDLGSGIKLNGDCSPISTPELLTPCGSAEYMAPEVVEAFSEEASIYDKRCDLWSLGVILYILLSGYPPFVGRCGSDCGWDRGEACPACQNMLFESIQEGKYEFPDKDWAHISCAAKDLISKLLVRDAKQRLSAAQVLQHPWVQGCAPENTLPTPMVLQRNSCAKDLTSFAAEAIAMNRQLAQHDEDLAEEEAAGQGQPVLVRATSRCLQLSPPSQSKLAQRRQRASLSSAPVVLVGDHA

[30] = target: Mitogen-activated protein kinase 13 (Homo sapiens) (UniProt O15264); experiment: Inhibition of p38delta MAPK assessed as residual activity at 10 uM using [33P-ATP] by radiometric filter binding assay
[31] = target: Mitogen-activated protein kinase 1 (Homo sapiens) (UniProt P28482); experiment: Inhibition of ERK2 assessed as residual activity at 10 uM using [33P-ATP] by radiometric filter binding assay
[32] = target: Insulin receptor-related protein (Homo sapiens) (UniProt P14616); experiment: Inhibition of IRR assessed as residual activity at 10 uM using [33P-ATP] by radiometric filter binding assay

## Cc1ccc(F)cc1-c1nc2[nH]nc(N)c2c2c1CCCC2
[1]
  Activity: 35%
[2]
  Activity: 95%
[3]
  Activity: 97%
[4]
  Activity: 87%
[5]
  Activity: 52%
[6]
  Activity: 29%
[7]
  Activity: 8%
[8]
  Activity: 76%
[9]
  Activity: 37%
[10]
  Activity: 108%
[11]
  Activity: 93%
[12]
  Activity: 96%
[13]
  Activity: 71%
[14]
  Activity: 112%
[15]
  Activity: 82%
[16]
  Activity: 107%
[17]
  Activity: 63%
[18]
  Activity: 113%
[19]
  Activity: 75%
[20]
  Activity: 7%
[21]
  Activity: 75%
[22]
  Activity: 97%
[23]
  Activity: 107%
[24]
  Activity: 64%
[25]
  Activity: 82%
[26]
  Activity: 60%
[27]
  Activity: 79%
[28]
  Activity: 52%
[29]
  Activity: 93%
[30]
  Activity: 100%
[31]
  Activity: 98%
[32]
  Activity: 77%
